The values below come from patent publication US10611740B2, “Aryl dihydro-2H-benzo[b][1,4]oxazine sulfonamide and related compounds for use as agonists of RORγ and the treatment of disease” (Lycera Corporation, priority 2015, dated 2020).

Where only a bound is given, the exact number is not on record here.

This test deals with T1, RORγ-LBD (Homo sapiens, UniProt P51449).
T1 construct: made in house; host or cells: SF9 cells (baculovirus)
T1 sequence (P51449 269-508 limits assumed): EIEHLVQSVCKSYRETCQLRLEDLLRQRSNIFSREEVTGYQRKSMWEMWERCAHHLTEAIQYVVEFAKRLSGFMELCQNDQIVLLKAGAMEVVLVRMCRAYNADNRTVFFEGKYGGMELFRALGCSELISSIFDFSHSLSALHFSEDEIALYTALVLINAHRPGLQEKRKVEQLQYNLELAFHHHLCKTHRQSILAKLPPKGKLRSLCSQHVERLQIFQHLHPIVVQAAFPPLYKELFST
Put plainly: RORγ-Ligand Binding Domain (LBD) TR-FRET Assay.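 As to TR-FRET Assay Max Response: 665/615 nm ratio relative to signal without ursolic acid or compound set at 100.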 It counts as biochemical. Here is the method: Assay procedures and results are described below.
HIS-tagged RORγ-LBD protein was expressed in SF9 cells using a baculovirus expression system. The lysate was diluted in assay buffer (50 mM Tris pH 7.0, 50 mM KCl, 1 mM EDTA, 0.1 mM DTT, 0.01% BSA) to obtain RORγ-LBD final concentration of ˜3 nM in a 384-well assay plate (need to titrate for each batch of protein).
A stock of biotinylated-LXXLL peptide from coactivator SRC1 (Biotin-[…]) was prepared in assay buffer and added to each well (200 nM final concentration). […] RORγ antagonist ursolic acid was also included at a final concentration of 2 μM. Compounds were diluted in DMSO and further diluted in assay buffer with a final DMSO concentration at 1%.
On the technique in general: Time-resolved FRET reads energy transfer from a long-lived donor to a nearby acceptor.

Regarding `CN(C)c1cc(C(F)(F)F)cc(-c2ccc3c(c2)N(S(=O)(=O)c2cccc(C(F)(F)F)c2)C[C@H](CCC(=O)O)O3)n1` [Compound 4AT, (S)-3-(6-(6-(dimethylamino)-4-(trifluoromethyl)pyridin-2-yl)-4-((3-(trifluoromethyl)phenyl)-sulfonyl)-3,4-dihydro-2H-benzo[b][1,4]oxazin-2-yl)propanoic acid], the EC50 (usually the concentration giving half of the maximal effect) is 0.5 to 5 µM and the “TR-FRET Assay Max Response” value is reported as “*** (The symbol “***” indicates a value in the range of greater than 150 to 200)”.
The like results for `O=C(O)[C@H]1C[C@H]([C@H]2CN(S(=O)(=O)c3cccc(C(F)(F)F)c3)c3cc(-c4cc(F)ccc4F)ccc3O2)C1` [Compound 60I, (1S,3r)-3-((S)-6-(2,5-difluoro-phenyl)-4-((3-(trifluoromethyl)-phenyl)sulfonyl)-3,4-dihydro-2H-benzo[b][1,4]oxazin-2-yl)cyclobutane-1-carboxylic acid] were, in that order, < 0.5 µM and “** (The symbol “**” indicates a value in the range of greater than 90 to 150)”.
The like results for `O=C(O)CNC(=O)CC[C@H]1CN(S(=O)(=O)c2cccc(C(F)(F)F)c2)c2cc(-c3cccc(F)c3F)ccc2O1` [Compound 23O, (S)-(3-(6-(2,3-difluorophenyl)-4-((3-(trifluoromethyl)-phenyl)sulfonyl)-3,4-dihydro-2H-benzo[b][1,4]oxazin-2-yl)propanoyl)glycine] were, in that order, < 0.5 µM and “**** (The symbol “****” indicates a value greater than 200)”.
Taken in the same sequence, the figures for `C[C@@H](CC(=O)O)[C@H]1CN(S(=O)(=O)c2cccc(C(F)(F)F)c2)c2cc(-c3cc(F)cc(OC(F)F)c3)ccc2O1` [Compound 80A, (S)-3-((S)-6-(3-(difluoro-methoxy)-5-fluorophenyl)-4-((3-(trifluoromethyl)phenyl)sulfonyl)-3,4-dihydro-2H-benzo[b][1,4]-oxazin-2-yl)butanoic acid] were < 0.5 µM and “*** (The symbol “***” indicates a value in the range of greater than 150 to 200)”.
Regarding `CC(C)(C[C@H]1CN(S(=O)(=O)c2cccc(C(F)(F)F)c2)c2cc(-c3cc(F)cc(F)c3Cl)ccc2O1)C(=O)O` [Compound 32U, (S)-3-(6-(2-chloro-3,5-difluoro-phenyl)-4-((3-(trifluoromethyl)-phenyl)sulfonyl)-3,4-dihydro-2H-benzo[b][1,4]oxazin-2-yl)-2,2-dimethylpropanoic acid], the EC50 is < 0.5 µM and the “TR-FRET Assay Max Response” value was “*** (The symbol “***” indicates a value in the range of greater than 150 to 200)”.
With `O=C(O)CC[C@H]1CN(S(=O)(=O)c2cccc(C(F)(F)F)c2)c2cc(-c3cc(F)cc(OC(F)F)c3)c(Cl)cc2O1` [Compound 22N, (S)-3-(7-chloro-6-(3-(difluoro-methoxy)-5-fluorophenyl)-4-((3-(trifluoromethyl)phenyl)sulfonyl)-3,4-dihydro-2H-benzo[b][1,4]-oxazin-2-yl)propanoic acid], the EC50 was < 0.5 µM.
Take `O=C(O)CC[C@H]1CN(S(=O)(=O)c2cccc(C(F)(F)F)c2)c2cc(-c3ccc(Cl)cc3)ccc2O1` [Compound 2B, (S)-3-(6-(4-chlorophenyl)-4-((3-(trifluoromethyl)phenyl)-sulfonyl)-3,4-dihydro-2H-benzo[b][1,4]oxazin-2-yl)propanoic acid]: the concentration for a half-maximal effect (EC50) was < 0.5 µM and the “TR-FRET Assay Max Response” value is on record as “** (The symbol “**” indicates a value in the range of greater than 90 to 150)”.
On to `CC(C)(C[C@@H]1CN(S(=O)(=O)c2cccc(C(F)(F)F)c2)c2cc(-c3cc(F)ccc3F)ccc2O1)NC(=O)C(C)(C)O` [Compound 30DD, (R)-N-(1-(6-(2,5-difluoro-phenyl)-4-((3-(trifluoromethyl)-phenyl)sulfonyl)-3,4-dihydro-2H-benzo[b][1,4]oxazin-2-yl)-2-methylpropan-2-yl)-2-hydroxy-2-methylpropanamide], for which the EC50 was < 0.5 µM and the “TR-FRET Assay Max Response” value is listed as “*** (The symbol “***” indicates a value in the range of greater than 150 to 200)”.
